In EP2082991A1, “Method of Water Treatment” (Thermphos Trading GmbH, priority 2008, dated 2009):
Like-named read-outs stand apart in the source and are kept apart here.

Assays:
[1] = 22 hours at 90 °C, pH 5.5
Procedure: Brine/sea water compatibility.
This test assesses sea water compatibility of the phosphonates added at: 100; 1000; 10000; and 50000 ppm to North Sea water after 22 hours at 90 °C. Calcium left in solution is measured by ICP.
Test details are as follows: • prepare synthetic North Sea water at pH 5.5; • add the phosphonate at 100, 1000, 10000 and 50000 ppm active acid to the synthetic North Sea water solution; • prepare 5 blank solutions made by mixing the required amount of distilled water with North Sea water to obtain the same dilution as obtained by the addition of […], 1000, 10000 and 50000 ppm active acid phosphonate to the synthetic North Sea water solution; • the phosphonate samples with the respective phosphonates at the 4 concentrations as well as the 5 blanks are stored in an oven at 90 °C for a period of 22-24 hours; • upon completion of the test, the samples are observed visually; • after completion of the test, the pH values are being carefully monitored and 50 ml are drawn from each sample, filtered through a […] Millipore filter and stabilized at pH<2 by addition of 37 % aqueous hydrochloric acid; • Ca tolerance values are calculated as follows: % Ca tolerance = (Vi)/(V0) × 100 [formula] • where V0 = ppm Ca found in the blank solution; and • V1 = ppm Ca found in the solution with the phosphonate.

[2] = minimum concentration for full scale inhibition; 22 hours at 90 °C, pH 6; tested at 15, 30, 50, 70 and 100 ppm
Procedure: Barium sulphate scale inhibition.
This is a static test to evaluate the efficiency of phosphonates in preventing barium and strontium scale inhibition in oil field scaling conditions. The test is carried out by determining the amount of BaSO4 and SrSO4 that has precipitated after 22 hours at 90 °C in a 50/50 mixture of synthetic North Sea water and Formation water containing the phosphonates to be tested at 5 different concentrations. The amount of soluble Ba and Sr ions is determined by ICP. The results stand for the minimum phosphonate concentration for 100 % barium sulphate scale inhibition or give the scale inhibition at 100 ppm loading of phosphonate.
Test details are as follows:
Synthetic North Sea water:
• synthetic North Sea and Formation water are prepared having a pH of 6. These water solutions are preheated at 90 °C before starting the test. […] Then add to this glass bottle 50 ml of Formation water; • also prepare one blank solution by mixing 50 ml of North Sea water with 50 ml of Formation water; • put the sample bottles in an oven for 22 hours at 90 °C; • after 22 hours, take 3 ml of each test solution from the surface, filter through a 0.45 µm Millipore filter and add to a stabilizing solution.

[3] = 1 % active acid phosphonate in synthetic North Sea water, pH 5.5, 140 °C, one week
Procedure: Thermal stability assessment.
This is a test to assess the thermal stability of phosphonates in the presence of synthetic North Sea water. The test is carried out by submitting mixtures of North Sea water and phosphonates stabilized at pH 5.5 to a one week heating at 140 °C. The thermal degradation is determined by ^31P NMR analysis.

[4] = minimum phosphonate concentration for 100% calcium carbonate scale inhibition; 22 hours at 50°C, pH 9
Procedure: Testing method for calcium carbonate scale inhibition.
This is a static test to evaluate the efficiency of phosphonates in preventing calcium carbonate scale inhibition in industrial water treatment conditions. The test is carried out by determining the amount of CaCO3 that has precipitated after 22 hours at 50°C in a 50/50 mixture of cationic and anionic waters with the test phosphonates at 5 different concentrations. The amount of soluble Ca ions is analyzed by titration. Result indicates the % Ca scale inhibition provided by the 5 phosphonate concentrations. Reported results give the minimum phosphonate concentration for 100% calcium carbonate scale inhibition.
• Cationic and anionic waters are prepared at pH 9.

[5] = Peroxide stabilization procedure (perborate/TAED with iron, 40°C, thiosulphate titration); details: 35 ppm phosphonate
Procedure: Peroxide stabilization procedure
In a 250 ml glass bottle filled with 200ml deionised water stabilized at 40°C add the following ingredients: […], 35ppm of the tested bleach stabilizer, 0.53g of sodium bicarbonate, 0.42g of sodium carbonate, 0.14g of sodium perborate tetrahydrate and 0.06g of tetra-acetyl ethylene diamine (TAED). Dissolve these ingredients in the water by using an ultrasonic bath. After one minute of such treatment the bottle is transferred to the water bath set at 40°C and samples (10 ml each) are taken from the test bottle 2, 6,10,15,20 and 30 minutes thereafter. To these samples are added 10ml of 1M potassium iodide and 10ml of 20% aqueous sulphuric acid before immediate titration with a standardized 0.01N thiosulphate solution.

[6] = 100 ppm phosphonate in North Sea water
[7] = 1000 ppm phosphonate in North Sea water
[8] = 10000 ppm phosphonate in North Sea water
[9] = 50000 ppm phosphonate in North Sea water

With O=P(O)(O)CN(CCCCC(CCCN(CP(=O)(O)O)CP(=O)(O)O)CN(CP(=O)(O)O)CP(=O)(O)O)CP(=O)(O)O (centres unmarked) [AMODHMPA, 4-Aminomethyl 1,8-octane diamine hexa (methylene phosphonic acid)] the “Ca Tolerance in %” value [1, 6] was 99%, the “Ca Tolerance in %” value [1, 7] was 83% and the “Ca Tolerance in %” value [1, 8] was 21%. The “Ca Tolerance in %” value [1, 9] was 100%, the “Ba Scale Inhibition: ppm phosphonate needed for 100% BaSO4 scale inhibition” value [2] was 30ppm full scale and the “Thermal Stability at 140°C 1 week Decomposition in %” value (from here on “Thermal Stability … in %”) [3] was 8.8%.
For O=P(O)(O)CN(CCN(CP(=O)(O)O)CP(=O)(O)O)CCN(CP(=O)(O)O)CP(=O)(O)O [Dequest 2066A, diethylene triaminopentamethylene phosphonate], the “Ca Scale Inhibition” value [4] was 2 ppm full scale, the “Ca Tolerance in %” value [1, 6] was 100% and the “Ca Tolerance in %” value [1, 7] was 89%. The “Ca Tolerance in %” value [1, 8] was 24%, the “Ca Tolerance in %” value [1, 9] was 100% and the “Ba Scale Inhibition: ppm phosphonate needed for 100% BaSO4 scale inhibition” value [2] was 15ppm full scale. For the same molecule, the “Thermal Stability … in %” value [3] was 24%.
For O=P([O-])(O)CN(CCN(CCN(CP(=O)(O)O)CP(=O)(O)O)CP(=O)(O)O)CP(=O)(O)O.[Na+] [Dequest 2066], the “% remaining act.oxygen” value ([5]; 0 min) was 100%, the “% remaining act.oxygen” value ([5]; 2 min) was 100% and the “% remaining act.oxygen” value ([5]; 6 min) was 99%. The “% remaining act.oxygen” value ([5]; 10 min) was 97%, the “% remaining act.oxygen” value ([5]; 15 min) was 95% and the “% remaining act.oxygen” value ([5]; 20 min) was 94%. For the same molecule, the “% remaining act.oxygen” value ([5]; 30 min) was 90%.
In the case of O=P(O)(O)CN(CCO)CP(=O)(O)O [HEIBMPA, 2-Hydroxy ethyl imino bis (methylene phosphonic acid)], the “Ca Tolerance in %” value [1, 6] was 100%, the “Ca Tolerance in %” value [1, 7] was 79% and the “Ca Tolerance in %” value [1, 8] was 100%. The “Ca Tolerance in %” value [1, 9] was 100%, the “Ba Scale Inhibition: ppm phosphonate needed for 100% BaSO4 scale inhibition” value [2] was 30ppm full scale and the “Thermal Stability … in %” value [3] was 19%.
